Experimental data from ChEMBL document CHEMBL1909046, “DrugMatrix in vitro pharmacology data”.

Legend:
[1] = target: T1, C-C chemokine receptor type 4 (Homo sapiens, UniProt P51679); type: cell membranes, Membrane; conditions: chem-1; note: in other assays of this panel Not Active means under 50% inhibition at 10 µM
T1 sequence (P51679 whole entry): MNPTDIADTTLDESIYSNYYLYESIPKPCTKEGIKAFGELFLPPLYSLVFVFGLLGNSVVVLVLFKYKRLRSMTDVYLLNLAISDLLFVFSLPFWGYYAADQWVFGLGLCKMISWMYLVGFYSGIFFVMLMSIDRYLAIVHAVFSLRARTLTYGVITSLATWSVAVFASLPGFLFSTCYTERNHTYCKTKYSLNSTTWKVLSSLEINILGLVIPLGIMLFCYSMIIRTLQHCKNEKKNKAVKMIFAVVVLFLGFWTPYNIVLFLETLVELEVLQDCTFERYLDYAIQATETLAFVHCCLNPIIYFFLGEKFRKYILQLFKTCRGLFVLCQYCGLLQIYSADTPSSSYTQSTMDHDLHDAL

[2] = DRUGMATRIX: Glutamate, NMDA, Agonism radioligand binding (ligand: [3H] CGP-39653); type: cell membranes, Rattus norvegicus, Wistar, Cerebral cortex, Membrane; conditions: Not Active = under 50% inhibition at 10 µM
[3] = target: T2, Polyunsaturated fatty acid lipoxygenase ALOX15 (Oryctolagus cuniculus, UniProt P12530); assay: biochemical; type: tissue-based, Reticulocytes; conditions: reticulocytes;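 note: inhibition of 15-lipoxygenase enzyme activity measured with linoleic acid as the substrate; in other assays of this panel Not Active means under 50% inhibition at 10 µM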
T2 sequence (P12530 whole entry): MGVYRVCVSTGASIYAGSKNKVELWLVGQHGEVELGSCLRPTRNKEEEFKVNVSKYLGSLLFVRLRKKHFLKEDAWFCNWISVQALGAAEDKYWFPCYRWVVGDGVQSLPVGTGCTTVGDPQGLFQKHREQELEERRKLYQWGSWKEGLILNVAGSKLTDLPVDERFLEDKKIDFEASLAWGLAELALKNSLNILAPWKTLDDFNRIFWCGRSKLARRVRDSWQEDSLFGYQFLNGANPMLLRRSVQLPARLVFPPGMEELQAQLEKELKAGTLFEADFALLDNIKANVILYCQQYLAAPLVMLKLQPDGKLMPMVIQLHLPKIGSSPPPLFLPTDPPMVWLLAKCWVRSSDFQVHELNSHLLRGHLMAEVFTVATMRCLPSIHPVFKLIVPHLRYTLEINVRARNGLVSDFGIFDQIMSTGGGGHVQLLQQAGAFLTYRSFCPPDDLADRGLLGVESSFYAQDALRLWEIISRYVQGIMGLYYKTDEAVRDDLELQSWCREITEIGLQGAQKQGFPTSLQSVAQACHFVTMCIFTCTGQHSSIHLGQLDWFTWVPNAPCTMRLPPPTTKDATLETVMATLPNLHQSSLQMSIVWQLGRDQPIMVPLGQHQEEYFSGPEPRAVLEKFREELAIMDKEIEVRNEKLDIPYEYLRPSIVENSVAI

[4] = target: T3, Muscarinic acetylcholine receptor M2 (Homo sapiens, UniProt P08172); type: cell membranes, CHO-K1, Membrane; conditions: cho-k1; note: in other assays of this panel Not Active means under 50% inhibition at 10 µM
T3 sequence (P08172 whole entry): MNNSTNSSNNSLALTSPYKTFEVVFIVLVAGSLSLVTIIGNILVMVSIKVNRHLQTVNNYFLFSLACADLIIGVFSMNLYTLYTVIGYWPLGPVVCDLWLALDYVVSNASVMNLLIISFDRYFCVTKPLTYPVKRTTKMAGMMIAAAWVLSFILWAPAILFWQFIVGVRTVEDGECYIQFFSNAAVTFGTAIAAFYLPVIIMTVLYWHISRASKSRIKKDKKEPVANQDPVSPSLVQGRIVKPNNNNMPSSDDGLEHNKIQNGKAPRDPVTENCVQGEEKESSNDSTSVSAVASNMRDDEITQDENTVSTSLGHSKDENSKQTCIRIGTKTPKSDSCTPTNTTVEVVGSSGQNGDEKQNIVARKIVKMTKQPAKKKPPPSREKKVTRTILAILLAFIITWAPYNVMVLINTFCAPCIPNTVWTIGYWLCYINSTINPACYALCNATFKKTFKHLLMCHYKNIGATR

Nitric oxide synthase 1 = Nitric oxide synthase 1 (Rattus norvegicus, UniProt P29476); type: tissue-based, Cerebellum; note: in other assays of this panel Not Active means under 50% inhibition at 10 µM
[5] = target: T4, Nitric oxide synthase, inducible (Mus musculus, UniProt P29477); design: species or system Escherichia coli
T4 sequence (P29477 whole entry): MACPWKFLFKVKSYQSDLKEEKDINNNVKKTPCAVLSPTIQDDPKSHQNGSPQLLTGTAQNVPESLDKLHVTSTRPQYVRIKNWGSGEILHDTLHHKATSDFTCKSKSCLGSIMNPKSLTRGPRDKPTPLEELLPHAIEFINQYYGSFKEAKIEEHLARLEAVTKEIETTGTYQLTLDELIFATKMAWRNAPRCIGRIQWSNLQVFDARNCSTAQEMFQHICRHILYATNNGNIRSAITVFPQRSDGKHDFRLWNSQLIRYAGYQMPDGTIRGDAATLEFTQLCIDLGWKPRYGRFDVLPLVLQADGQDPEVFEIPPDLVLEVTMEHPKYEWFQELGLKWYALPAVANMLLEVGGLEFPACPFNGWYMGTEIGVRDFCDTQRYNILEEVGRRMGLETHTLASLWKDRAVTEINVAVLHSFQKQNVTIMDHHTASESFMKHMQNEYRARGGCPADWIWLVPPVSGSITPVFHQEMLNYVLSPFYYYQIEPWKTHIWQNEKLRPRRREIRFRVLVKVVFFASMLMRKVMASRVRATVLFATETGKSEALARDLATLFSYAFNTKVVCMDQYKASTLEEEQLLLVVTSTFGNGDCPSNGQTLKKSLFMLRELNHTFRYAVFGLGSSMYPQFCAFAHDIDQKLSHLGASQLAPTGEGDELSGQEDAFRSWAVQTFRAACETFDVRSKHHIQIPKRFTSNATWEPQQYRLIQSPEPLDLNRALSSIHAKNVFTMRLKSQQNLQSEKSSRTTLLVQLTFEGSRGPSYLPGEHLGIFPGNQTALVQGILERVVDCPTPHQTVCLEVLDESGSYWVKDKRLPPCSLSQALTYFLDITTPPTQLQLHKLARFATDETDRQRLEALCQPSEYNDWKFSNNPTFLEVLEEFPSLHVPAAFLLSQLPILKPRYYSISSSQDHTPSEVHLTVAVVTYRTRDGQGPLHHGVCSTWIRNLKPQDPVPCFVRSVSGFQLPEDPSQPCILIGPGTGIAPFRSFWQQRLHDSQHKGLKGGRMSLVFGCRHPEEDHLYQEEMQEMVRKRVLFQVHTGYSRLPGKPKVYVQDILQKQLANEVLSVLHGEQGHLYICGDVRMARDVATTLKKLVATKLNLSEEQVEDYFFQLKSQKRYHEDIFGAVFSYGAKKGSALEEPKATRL

[6] = target: Protein kinase C alpha type (Homo sapiens, UniProt P17252); type: cell-based; conditions: sf9
[7] = target: Kappa-type opioid receptor (Homo sapiens, UniProt P41145); assay: DRUGMATRIX: Opiate kappa (OP2, KOP) radioligand binding (ligand: [3H] Diprenorphine); type: cell membranes, HEK293, Membrane; conditions: hek293; Not Active = under 50% inhibition at 10 µM
Sequence of Kappa-type opioid receptor (P41145 whole entry): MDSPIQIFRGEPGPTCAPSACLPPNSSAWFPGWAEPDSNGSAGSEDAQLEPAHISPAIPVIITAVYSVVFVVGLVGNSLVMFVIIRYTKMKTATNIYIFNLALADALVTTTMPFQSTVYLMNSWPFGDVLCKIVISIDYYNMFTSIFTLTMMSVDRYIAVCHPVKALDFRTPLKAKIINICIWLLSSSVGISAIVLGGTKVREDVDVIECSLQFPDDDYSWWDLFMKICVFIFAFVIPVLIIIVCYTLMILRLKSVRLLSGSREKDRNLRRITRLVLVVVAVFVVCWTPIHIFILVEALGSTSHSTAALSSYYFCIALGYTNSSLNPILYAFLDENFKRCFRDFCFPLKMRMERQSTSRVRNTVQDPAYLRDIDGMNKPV

Sequence of Nitric oxide synthase 1 (P29476 whole entry): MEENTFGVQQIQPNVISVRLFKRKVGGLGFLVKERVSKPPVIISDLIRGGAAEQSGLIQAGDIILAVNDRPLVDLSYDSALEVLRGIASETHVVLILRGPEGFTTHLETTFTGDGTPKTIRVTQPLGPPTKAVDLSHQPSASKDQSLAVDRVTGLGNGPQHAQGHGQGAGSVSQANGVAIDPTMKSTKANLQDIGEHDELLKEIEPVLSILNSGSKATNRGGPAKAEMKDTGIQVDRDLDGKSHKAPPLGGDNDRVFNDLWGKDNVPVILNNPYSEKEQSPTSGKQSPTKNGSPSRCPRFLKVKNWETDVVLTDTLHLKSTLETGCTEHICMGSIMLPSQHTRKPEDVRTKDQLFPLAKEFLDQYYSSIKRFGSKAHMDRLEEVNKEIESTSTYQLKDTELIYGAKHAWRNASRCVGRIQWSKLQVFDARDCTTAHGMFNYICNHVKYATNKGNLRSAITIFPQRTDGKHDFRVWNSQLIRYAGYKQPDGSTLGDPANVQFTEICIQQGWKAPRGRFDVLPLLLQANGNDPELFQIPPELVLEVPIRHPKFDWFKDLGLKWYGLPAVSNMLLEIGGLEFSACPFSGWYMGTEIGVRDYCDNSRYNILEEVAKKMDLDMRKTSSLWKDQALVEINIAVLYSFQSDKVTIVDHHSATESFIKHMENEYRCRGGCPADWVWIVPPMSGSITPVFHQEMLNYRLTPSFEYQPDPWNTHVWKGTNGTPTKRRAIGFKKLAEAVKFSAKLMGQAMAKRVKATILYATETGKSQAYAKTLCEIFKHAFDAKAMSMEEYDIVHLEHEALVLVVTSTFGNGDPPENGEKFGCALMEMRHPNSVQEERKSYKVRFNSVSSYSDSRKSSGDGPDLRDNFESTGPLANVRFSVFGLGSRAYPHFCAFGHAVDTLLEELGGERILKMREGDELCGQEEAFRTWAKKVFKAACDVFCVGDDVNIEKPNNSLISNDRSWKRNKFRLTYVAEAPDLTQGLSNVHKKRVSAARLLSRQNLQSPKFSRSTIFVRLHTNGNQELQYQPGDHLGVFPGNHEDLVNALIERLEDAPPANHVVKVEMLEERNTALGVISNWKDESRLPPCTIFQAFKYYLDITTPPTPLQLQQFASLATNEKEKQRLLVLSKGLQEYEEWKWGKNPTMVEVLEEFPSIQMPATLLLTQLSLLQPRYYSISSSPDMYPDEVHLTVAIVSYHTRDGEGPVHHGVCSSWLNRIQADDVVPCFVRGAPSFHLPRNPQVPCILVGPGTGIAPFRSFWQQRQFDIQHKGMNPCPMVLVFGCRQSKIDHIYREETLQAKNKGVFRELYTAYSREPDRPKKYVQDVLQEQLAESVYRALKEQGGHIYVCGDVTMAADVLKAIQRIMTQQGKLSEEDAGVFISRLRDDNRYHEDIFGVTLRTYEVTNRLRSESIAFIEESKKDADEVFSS

CISPLATIN
Not Active: IC50 [1] | Ki [1] | IC50 [2] | Ki [2] | IC50 [3] | Ki [3] | IC50 [4] | Ki [4] | IC50 (Nitric oxide synthase 1) | Ki (Nitric oxide synthase 1) | IC50 [5] | Ki [5] | IC50 [6] | Ki [6]

GOLD SODIUM THIOMALATE
Not Active: IC50 [1] | Ki [1] | IC50 [2] | Ki [2] | IC50 [3] | Ki [3] | IC50 [4] | Ki [4] | IC50 (Nitric oxide synthase 1) | Ki (Nitric oxide synthase 1) | IC50 [5] | Ki [5] | IC50 [6] | Ki [6]

OXALIPLATIN
Not Active: IC50 [1] | Ki [1] | IC50 [2] | Ki [2] | IC50 [3] | Ki [3] | IC50 [4] | Ki [4] | IC50 (Nitric oxide synthase 1) | Ki (Nitric oxide synthase 1) | IC50 [5] | Ki [5] | IC50 [6] | Ki [6]

CARBOPLATIN
Not Active: IC50 [1] | Ki [1] | IC50 [2] | Ki [2] | IC50 [3] | Ki [3] | IC50 [4] | Ki [4] | IC50 (Nitric oxide synthase 1) | Ki (Nitric oxide synthase 1) | IC50 [5] | Ki [5] | IC50 [6] | Ki [6]

N#C[C@H](O[C@@H]1O[C@H](CO[C@@H]2O[C@H](CO)[C@@H](O)[C@H](O)[C@H]2O)[C@@H](O)[C@H](O)[C@H]1O)c1ccccc1 [AMYGDALIN]
Not Active: IC50 [1] | IC50 [2] | Ki [2] | IC50 [3] | IC50 [4] | IC50 (Nitric oxide synthase 1) | IC50 [5] | IC50 [6]

CN1C[C@H](C(=O)N[C@]2(C)O[C@@]3(O)[C@@H]4CCCN4C(=O)[C@H](Cc4ccccc4)N3C2=O)C=C2c3cccc4[nH]cc(c34)C[C@H]21 [ERGOTAMINE]
Not Active: IC50 [1] | IC50 [2] | Ki [2] | IC50 [3] | IC50 [4] | IC50 (Nitric oxide synthase 1) | IC50 [5] | IC50 [6]

C=C(C)[C@@H]1[C@H]2OC(=O)[C@@H]1[C@]1(O)C[C@H]3O[C@]34C(=O)O[C@H]2[C@]14C [PICROTOXININ]
Not Active: IC50 [1] | IC50 [2] | Ki [2] | IC50 [3] | IC50 [4] | IC50 (Nitric oxide synthase 1) | IC50 [5] | IC50 [6]

c1ccc2c(c1)cc1ccc3cccc4ccc2c1c34
Not Active: IC50 [1] | IC50 [2] | Ki [2] | IC50 [3] | IC50 [4] | IC50 (Nitric oxide synthase 1) | IC50 [5] | IC50 [6]

C=C1[C@@H]2CCC3[C@@](CC[C@@H]4[C@H](C(=O)O)C[C@@H](O[C@@H]5O[C@H](CO)[C@@H](OS(=O)(=O)[O-])[C@H](OS(=O)(=O)[O-])[C@H]5OC(=O)CC(C)C)C[C@@]34C)(C2)[C@@H]1O.[K+].[K+] (stereo partly drawn) [ATRACTYLOSIDE]
Not Active: IC50 [1] | IC50 [2] | Ki [2] | IC50 [3] | IC50 [4] | IC50 (Nitric oxide synthase 1) | IC50 [5] | IC50 [6]

Fc1ccc([C@@H]2CCNC[C@H]2COc2ccc3c(c2)OCO3)cc1 [PAROXETINE]
Not Active: IC50 [1] | IC50 [2] | Ki [2] | IC50 [3] | IC50 (Nitric oxide synthase 1) | IC50 [5] | IC50 [7] | IC50 [6]

CC[N+](CC)(CC)CCOc1cccc(OCC[N+](CC)(CC)CC)c1OCC[N+](CC)(CC)CC.[I-].[I-].[I-] [GALLAMINE TRIETHIODIDE]
Not Active: IC50 [1] | IC50 [2] | Ki [2] | IC50 [3] | IC50 (Nitric oxide synthase 1) | IC50 [5] | IC50 [7] | IC50 [6]

CCCCCCCCCc1ccc(O)cc1 [4-NONYLPHENOL]
Not Active: IC50 [1] | IC50 [2] | Ki [2] | IC50 [3] | IC50 [4] | IC50 (Nitric oxide synthase 1) | IC50 [5] | IC50 [6]

CCCC[C@@H](CC)COC(=O)c1ccccc1C(=O)OC[C@@H](CC)CCCC [BIS(2-ETHYLHEXYL)PHTHALATE]
Not Active: IC50 [1] | IC50 [2] | Ki [2] | IC50 [3] | IC50 [4] | IC50 (Nitric oxide synthase 1) | IC50 [5] | IC50 [6]
